ChEMBL document CHEMBL1782001, “Discovery of selective PDE4B inhibitors” (Bioorg Med Chem Lett, 2009)

How the values were obtained:
[1] = target: 3',5'-cyclic-AMP phosphodiesterase 4B (Homo sapiens, UniProt Q07343); test: Inhibition of human PDE4B1 incubated for 10 mins using cAMP and [3H]cAMP substrates
[2] = target: 3',5'-cyclic-AMP phosphodiesterase 4D (Homo sapiens, UniProt Q08499); test: Inhibition of human PDE4D3 incubated for 10 mins using cAMP and [3H]cAMP substrates
Homo sapiens = species on record: Homo sapiens; test: Selectivity ratio, ratio of IC50 for human PDE4D3 to IC50 for human PDE4B1
[3] = AUC (0 to infinity) in ferret at 2 mg/kg, po; assay type: ADME, organism-based, Mustela putorius furo; design: time infinity, dose 2 mg/kg, route oral; settings: plasma
Cytochrome P450 2C9 = Cytochrome P450 2C9 (Homo sapiens, UniProt P11712); test: Inhibition of CYP2C9; assay type: ADME
[4] = Inhibition of PDE3
Mustela putorius furo [5] = test: Inhibition of […] in ferret assessed as inhibition of LPS-induced change in number of neutrophils in lung lavage at 12.5 mg/kg, po; assay type: functional
Mus musculus = test: Inhibition of LPS-induced TNFalpha production in po dosed mouse; assay type: functional; settings: read-out: ID50 (the source's name)
Cytochrome P450 2D6 = Cytochrome P450 2D6 (Homo sapiens, UniProt P10635); test: Inhibition of CYP2D6; assay type: ADME
Mustela putorius furo [6] = test: Inhibition of […] in ferret assessed as inhibition of LPS-induced change in number of neutrophils in lung lavage at 25 mg/kg, po; assay type: functional
Cytochrome P450 1A2 = target: T1, Cytochrome P450 1A2 (Homo sapiens, UniProt P05177); test: Inhibition of CYP1A2; assay type: ADME
T1 sequence (P05177 whole entry): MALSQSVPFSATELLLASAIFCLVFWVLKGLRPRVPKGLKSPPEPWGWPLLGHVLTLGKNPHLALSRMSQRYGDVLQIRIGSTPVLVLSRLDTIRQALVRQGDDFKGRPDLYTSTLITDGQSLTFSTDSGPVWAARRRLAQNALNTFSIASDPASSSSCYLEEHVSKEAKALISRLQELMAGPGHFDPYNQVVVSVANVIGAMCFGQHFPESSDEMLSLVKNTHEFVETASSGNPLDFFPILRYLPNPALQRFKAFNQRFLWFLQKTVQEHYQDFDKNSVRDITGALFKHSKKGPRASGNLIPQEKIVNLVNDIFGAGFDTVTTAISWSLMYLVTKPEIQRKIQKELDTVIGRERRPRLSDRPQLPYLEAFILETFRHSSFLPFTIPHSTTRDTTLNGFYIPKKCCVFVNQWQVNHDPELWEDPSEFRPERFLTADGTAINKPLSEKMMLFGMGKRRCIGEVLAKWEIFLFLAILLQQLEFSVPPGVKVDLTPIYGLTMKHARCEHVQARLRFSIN

[7] = Inhibition of PDE6
Mustela putorius furo [8] = test: Toxicity in ferret assessed as induction of emesis at 100 mg/kg, po measured 6 hrs post dose; assay type: organism-based; design: dose 100 mg/kg, route oral; settings: in vivo
Mustela putorius furo [9] = test: Toxicity in ferret assessed as induction of emesis at 200 mg/kg, po measured 6 hrs post dose; assay type: organism-based; design: dose 200 mg/kg, route oral; settings: in vivo
[10] = Cmax in ferret at 2 mg/kg, po; assay type: ADME, organism-based, Mustela putorius furo; design: dose 2 mg/kg, route oral; settings: in vivo
[11] = AUC (0 to infinity) in mouse at 2 mg/kg, po; assay type: ADME, organism-based; design: time infinity, dose 2 mg/kg, route oral; settings: plasma
[12] = Cmax in mouse at 2 mg/kg, po; assay type: ADME, organism-based; design: dose 2 mg/kg, route oral; settings: in vivo
[13] = target: cGMP-specific 3',5'-cyclic phosphodiesterase (Homo sapiens, UniProt O76074); test: Inhibition of PDE5
[14] = Oral bioavailability in mouse; assay type: ADME, organism-based; settings: in vivo
Cytochrome P450 3A4 = Cytochrome P450 3A4 (Homo sapiens, UniProt P08684); test: Inhibition of CYP3A4; assay type: ADME
[15] = Inhibition of PDE1
Mustela putorius furo [16] = test: Toxicity in ferret assessed as induction of emesis at 1 mg/kg, po measured 6 hrs post dose; assay type: organism-based; design: dose 1 mg/kg, route oral; settings: in vivo
Mustela putorius furo [17] = test: Inhibition of […] in ferret assessed as inhibition of LPS-induced change in number of neutrophils in lung lavage at 10 mg/kg, po; assay type: functional
Mustela putorius furo [18] = test: Toxicity in ferret assessed as induction of emesis at 10 mg/kg, po measured 6 hrs post dose; assay type: organism-based; design: dose 10 mg/kg, route oral; settings: in vivo
Mustela putorius furo [19] = test: Toxicity in ferret assessed as induction of emesis at 0.3 mg/kg, po measured 6 hrs post dose; assay type: organism-based; design: dose 0.3 mg/kg, route oral; settings: in vivo

Sequence of 3',5'-cyclic-AMP phosphodiesterase 4B (Q07343 whole entry): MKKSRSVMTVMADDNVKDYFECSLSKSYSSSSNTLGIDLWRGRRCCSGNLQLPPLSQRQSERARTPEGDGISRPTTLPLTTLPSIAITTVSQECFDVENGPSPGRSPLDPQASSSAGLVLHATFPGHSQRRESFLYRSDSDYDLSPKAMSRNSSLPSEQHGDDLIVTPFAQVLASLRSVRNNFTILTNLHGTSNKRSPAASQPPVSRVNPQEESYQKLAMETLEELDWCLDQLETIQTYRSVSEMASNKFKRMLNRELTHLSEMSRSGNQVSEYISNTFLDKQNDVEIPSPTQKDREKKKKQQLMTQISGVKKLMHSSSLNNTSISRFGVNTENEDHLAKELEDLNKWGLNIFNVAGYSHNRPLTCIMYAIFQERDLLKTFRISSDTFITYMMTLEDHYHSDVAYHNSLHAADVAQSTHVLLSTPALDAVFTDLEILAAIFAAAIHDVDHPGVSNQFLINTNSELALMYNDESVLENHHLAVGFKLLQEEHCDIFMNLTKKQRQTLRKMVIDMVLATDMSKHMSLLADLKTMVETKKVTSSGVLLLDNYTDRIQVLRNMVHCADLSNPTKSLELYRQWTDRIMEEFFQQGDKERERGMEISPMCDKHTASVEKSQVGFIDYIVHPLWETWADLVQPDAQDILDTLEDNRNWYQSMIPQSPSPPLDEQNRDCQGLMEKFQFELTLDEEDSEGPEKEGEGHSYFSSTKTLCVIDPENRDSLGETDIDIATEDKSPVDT
Sequence of 3',5'-cyclic-AMP phosphodiesterase 4D (Q08499 whole entry): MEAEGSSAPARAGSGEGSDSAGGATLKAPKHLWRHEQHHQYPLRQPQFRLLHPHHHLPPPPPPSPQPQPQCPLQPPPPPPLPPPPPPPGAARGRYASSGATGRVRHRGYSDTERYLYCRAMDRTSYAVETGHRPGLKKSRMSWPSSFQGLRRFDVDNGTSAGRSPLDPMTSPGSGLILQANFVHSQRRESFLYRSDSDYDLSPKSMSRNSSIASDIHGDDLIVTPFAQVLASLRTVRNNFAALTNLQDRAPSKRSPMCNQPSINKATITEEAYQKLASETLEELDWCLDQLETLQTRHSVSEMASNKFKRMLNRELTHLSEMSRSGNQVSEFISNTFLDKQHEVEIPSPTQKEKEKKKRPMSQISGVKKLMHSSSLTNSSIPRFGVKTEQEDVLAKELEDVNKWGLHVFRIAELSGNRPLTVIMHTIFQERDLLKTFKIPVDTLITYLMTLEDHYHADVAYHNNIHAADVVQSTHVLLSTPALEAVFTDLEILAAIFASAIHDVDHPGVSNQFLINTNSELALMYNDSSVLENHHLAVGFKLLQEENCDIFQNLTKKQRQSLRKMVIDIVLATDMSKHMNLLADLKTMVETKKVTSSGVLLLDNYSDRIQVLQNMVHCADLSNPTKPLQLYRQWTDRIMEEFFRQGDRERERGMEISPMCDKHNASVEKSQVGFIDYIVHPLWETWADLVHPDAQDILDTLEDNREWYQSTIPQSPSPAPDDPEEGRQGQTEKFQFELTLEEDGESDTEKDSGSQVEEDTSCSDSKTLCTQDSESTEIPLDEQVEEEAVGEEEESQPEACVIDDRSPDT
Sequence of Cytochrome P450 3A4 (P08684 whole entry): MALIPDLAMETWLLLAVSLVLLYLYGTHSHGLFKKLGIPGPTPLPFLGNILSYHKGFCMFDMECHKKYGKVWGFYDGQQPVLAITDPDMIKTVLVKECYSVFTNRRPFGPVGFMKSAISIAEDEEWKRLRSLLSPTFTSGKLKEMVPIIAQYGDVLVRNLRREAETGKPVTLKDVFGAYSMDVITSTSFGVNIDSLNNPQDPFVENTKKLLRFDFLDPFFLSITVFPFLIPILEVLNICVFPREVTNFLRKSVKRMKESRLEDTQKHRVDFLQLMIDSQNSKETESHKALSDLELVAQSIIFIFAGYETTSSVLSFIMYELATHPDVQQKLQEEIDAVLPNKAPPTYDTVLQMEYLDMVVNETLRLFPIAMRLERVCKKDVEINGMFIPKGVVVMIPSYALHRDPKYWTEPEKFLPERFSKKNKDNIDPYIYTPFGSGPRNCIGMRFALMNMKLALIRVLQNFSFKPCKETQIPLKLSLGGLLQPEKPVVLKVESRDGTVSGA
Sequence of Cytochrome P450 2C9 (P11712 whole entry): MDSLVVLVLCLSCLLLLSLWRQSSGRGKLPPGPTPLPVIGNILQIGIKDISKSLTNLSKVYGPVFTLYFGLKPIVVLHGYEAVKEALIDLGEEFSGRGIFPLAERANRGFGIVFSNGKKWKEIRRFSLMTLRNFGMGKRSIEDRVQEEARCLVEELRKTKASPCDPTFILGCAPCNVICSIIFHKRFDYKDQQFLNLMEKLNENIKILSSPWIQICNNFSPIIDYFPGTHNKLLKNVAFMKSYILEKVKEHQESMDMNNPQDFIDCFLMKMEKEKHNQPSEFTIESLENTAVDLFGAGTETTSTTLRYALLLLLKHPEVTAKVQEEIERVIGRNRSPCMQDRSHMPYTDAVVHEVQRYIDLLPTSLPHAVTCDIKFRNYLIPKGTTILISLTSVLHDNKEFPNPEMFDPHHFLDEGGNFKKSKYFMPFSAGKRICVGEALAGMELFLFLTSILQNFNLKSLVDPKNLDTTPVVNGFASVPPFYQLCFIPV
Sequence of Cytochrome P450 2D6 (P10635 whole entry): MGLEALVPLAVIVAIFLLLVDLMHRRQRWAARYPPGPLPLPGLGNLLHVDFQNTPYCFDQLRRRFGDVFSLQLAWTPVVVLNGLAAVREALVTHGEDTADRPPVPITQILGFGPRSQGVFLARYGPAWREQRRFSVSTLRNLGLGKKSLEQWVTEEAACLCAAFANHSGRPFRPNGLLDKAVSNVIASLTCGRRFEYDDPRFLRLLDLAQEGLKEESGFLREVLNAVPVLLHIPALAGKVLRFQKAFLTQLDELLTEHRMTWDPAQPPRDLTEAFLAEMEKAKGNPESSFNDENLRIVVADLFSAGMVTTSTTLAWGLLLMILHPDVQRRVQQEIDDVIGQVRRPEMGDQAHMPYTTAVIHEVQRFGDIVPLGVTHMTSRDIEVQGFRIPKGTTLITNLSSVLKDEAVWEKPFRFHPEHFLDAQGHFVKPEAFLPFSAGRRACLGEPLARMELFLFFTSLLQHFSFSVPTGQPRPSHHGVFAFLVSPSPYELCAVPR

| SMILES | IC50 [1] | IC50 [2] | Ratio IC50 (Homo sapiens) | further results |
| --- | --- | --- | --- | --- |
| C=CCc1c(C)nc(-c2ccc(OC)s2)nc1Nc1ccc(CC(=O)O)cc1 | 0.19 µM | 5.3 µM | 29 |  |
| C=CCc1c(CCC)nc(-c2ccccc2)nc1Nc1ccc(C(=O)O)cc1 | 0.69 µM | 2.4 µM | 3.4 |  |
| CCc1c(C)nc(-c2ccccc2)nc1Nc1ccc(C(=O)O)cc1 | 0.14 µM | 2.1 µM | 15 |  |
| CCCCc1c(C)nc(-c2ccccc2)nc1Nc1ccc(C(=O)O)cc1 | > 1 µM |  |  |  |
| C=CCc1c(C)nc(-c2ccc(C)cc2)nc1Nc1ccc(C(=O)O)cc1 | 0.22 µM | 2.8 µM | 13 |  |
| C=CCc1c(CC)nc(-c2ccccc2)nc1Nc1ccc(C(=O)O)cc1 | 0.034 µM | 0.082 µM | 2.4 |  |
| C=CCc1c(C)nc(-c2ccccn2)nc1Nc1ccc(C(=O)O)cc1 | 3.7 µM | 15 µM | 4.1 |  |
| C=CCc1c(C)nc(-c2ccc(OC)cc2)nc1Nc1ccc(C(=O)O)cc1 | 0.22 µM | 2 µM | 8.9 |  |
| C=CCc1c(C)nc(-c2cccc(C)c2)nc1Nc1ccc(C(=O)O)cc1 | 0.21 µM | 1.5 µM | 6.9 |  |
| Cc1nc(-c2ccccc2)nc(Nc2ccc(C(=O)O)cc2)c1C=O | 0.3 µM | 1.5 µM | 5.2 |  |
| C=CCc1c(C)nc(-c2cccs2)nc1Nc1ccc(C(=O)O)cc1 | 0.12 µM | 1.3 µM | 11 |  |
| Cc1nc(-c2ccccc2)nc(Nc2ccc(C(=O)O)cc2)c1C | 0.43 µM | 3.4 µM | 7.9 |  |
| C=CCc1c(C)nc(-c2ccc(C)s2)nc1Nc1ccc(CC(=O)O)cc1 | 0.32 µM | 8.8 µM | 28 |  |
| C=CCc1c(C)nc(-c2cnccn2)nc1Nc1ccc(C(=O)O)cc1 | 0.86 µM | 3 µM | 3.5 |  |
| Cc1nc(-c2ccccc2)nc(Nc2ccc(C(=O)O)cc2)c1Cc1ccccc1 | > 1 µM |  |  |  |
| Cc1nc(-c2ccccc2)nc(Nc2ccc(C(=O)O)cc2)c1C(C)C | > 1 µM |  |  |  |
| C=CCc1c(C)nc(-c2ccc(OC)s2)nc1Nc1ccc(C(=O)O)cc1 | 0.078 µM | 0.76 µM | 9.8 |  |
| CCc1c(C)nc(-c2ccc(Br)s2)nc1Nc1ccc(CC(=O)O)cc1 | 0.019 µM | 1.6 µM | 87 |  |

| SMILES | IC50 [1] | IC50 [2] | Ratio IC50 (Homo sapiens) | further results |
| --- | --- | --- | --- | --- |
| CCc1c(C)nc(-c2ccc(Cl)s2)nc1Nc1ccc(CC(=O)O)cc1 | 0.015 µM | 1.7 µM | 114 | AUC(0-inf) [3]: 33500 ng·h/mL; IC50 (Cytochrome P450 2C9): > 10 µM; IC50 [4]: > 2 µM; inhibition in vivo at 12.5 mg/kg (Mustela putorius furo [5]): 44%; ED50 (Mus musculus): 14 mg/kg; IC50 (Cytochrome P450 2D6): > 10 µM; inhibition in vivo at 25 mg/kg (Mustela putorius furo [6]): 46%; IC50 (Cytochrome P450 1A2): > 10 µM; IC50 [7]: > 2 µM; Activity (Mustela putorius furo [8]): Non-toxic; Activity (Mustela putorius furo [9]): Toxic; Cmax [10]: 4500 ng/mL; AUC(0-inf) [11]: 52300 ng·h/mL; Cmax [12]: 8700 ng/mL; IC50 [13]: > 2 µM; bioavailability [14]: 85%; IC50 (Cytochrome P450 3A4): > 10 µM; IC50 [15]: > 2 µM |
| C=CCc1c(C)nc(-c2ccsc2)nc1Nc1ccc(C(=O)O)cc1 | 0.068 µM | 0.99 µM | 15 |  |
| Cc1nc(-c2ccccc2)nc(Nc2ccc(C(=O)O)cc2)c1CN | > 1 µM |  |  |  |
| CCc1c(C)nc(-c2ccc(F)s2)nc1Nc1ccc(CC(=O)O)cc1F | 0.015 µM | 3.1 µM | 205 | AUC(0-inf) [3]: 341000 ng·h/mL; IC50 (Cytochrome P450 2C9): > 10 µM; IC50 (Cytochrome P450 2D6): > 10 µM; IC50 (Cytochrome P450 1A2): > 10 µM; Cmax [10]: 14800 ng/mL; AUC(0-inf) [11]: 21900 ng·h/mL; Cmax [12]: 10900 ng/mL; bioavailability [14]: 73%; IC50 (Cytochrome P450 3A4): > 10 µM |
| CCc1c(C)nc(-c2cc(Br)c(C)s2)nc1Nc1ccc(CC(=O)O)cc1 | 0.0068 µM | 2.9 µM | 420 |  |
| CCc1c(C)nc(-c2ccc(SC)s2)nc1Nc1ccc(CC(=O)O)cc1 | 0.034 µM | 1.5 µM | 43 |  |
| COc1ccc([C@]2(C#N)CC[C@@H](C(=O)O)CC2)cc1OC1CCCC1 [CILOMILAST] |  |  |  | ED50 (Mus musculus): 2.2 mg/kg; Activity (Mustela putorius furo [16]): Toxic; inhibition in vivo at 10 mg/kg (Mustela putorius furo [17]): 35%; Activity (Mustela putorius furo [18]): Toxic; Activity (Mustela putorius furo [19]): Non-toxic |
| Cc1nc(-c2ccccc2)nc(Nc2ccc(C(=O)O)cc2)c1CO | 0.54 µM | 8 µM | 15 |  |
| C=CCc1c(C)nc(-c2ccc(C)s2)nc1Nc1ccc(C(=O)O)cc1 | 0.15 µM | 1.3 µM | 8.6 |  |
| C=CCc1c(C)nc(-c2ccc(OC)cc2)nc1Nc1ccc(CC(=O)O)cc1 | 0.6 µM | 4.8 µM | 8 |  |
| CCCc1c(C)nc(-c2ccccc2)nc1Nc1ccc(C(=O)O)cc1 | 1.3 µM | 7.6 µM | 5.6 |  |
| Cc1nc(-c2ccccc2)nc(Nc2ccc(C(=O)O)cc2)c1C#N | 0.12 µM | 1.5 µM | 12 |  |
| C=CCc1c(C)nc(-c2ccc(C)cc2)nc1Nc1ccc(CC(=O)O)cc1 | 0.94 µM | 11 µM | 12 |  |
| C=CCc1c(C)nc(-c2ccccc2)nc1Nc1ccc(C(=O)O)cc1 | 0.19 µM | 1.9 µM | 9.7 |  |
| C=CCc1c(C)nc(-c2ccccc2)nc1Nc1ccc(CC(=O)O)cc1 | 1.8 µM | > 10 µM |  |  |
| C=CCc1c(C)nc(-c2csc(C)n2)nc1Nc1ccc(C(=O)O)cc1 | 2.8 µM | 12 µM | 4.2 |  |
| C=CCc1c(Nc2ccc(C(=O)O)cc2)nc(-c2ccccc2)nc1C(C)C | > 1 µM |  |  |  |
| C=CCc1c(C)nc(-c2cccc(C)c2)nc1Nc1ccc(CC(=O)O)cc1 | 1.2 µM | 9.9 µM | 8 |  |
